Source: PubChem BioAssay (NCI)
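Dose response: 5 concentrations. Exposure: 48 h. Format: 96-well plates. Endpoint: linear interpolation; highest concentration if not reached. GI50 = concentration required for 50% inhibition of growth. TGI is the concentration that stops growth completely.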

Assays:
Assay in all cases: NCI tumour cell line growth inhibition, 48 h
[1] = test system: IGROV1 ovarian
[2] = test system: PC-3 prostate
[3] = test system: BT-549 breast
[4] = test system: HOP-62 NSCLC
[5] = test system: KM12 colon
[6] = test system: CAKI-1 renal
[7] = test system: HCT-116 colon
[8] = test system: TK-10 renal
[9] = test system: HCC-2998 colon
[10] = test system: ACHN renal
[11] = test system: COLO 205 colon
[12] = test system: MDA-MB-231 breast
[13] = test system: SF-268 CNS
[14] = test system: HCT-15 colon
[15] = test system: NCI-H226 lung
[16] = test system: SK-MEL-5 melanoma
[17] = test system: HT29 colon
[18] = test system: 786-0 renal
[19] = test system: SF-539 CNS
[20] = test system: UO-31 renal
[21] = test system: HOP-92 NSCLC
[22] = test system: U251 CNS
[23] = test system: NCI-H23 lung
[24] = test system: OVCAR-5 ovarian
[25] = test system: SF-295 CNS
[26] = test system: SW-620 colon
[27] = test system: CCRF-CEM leukemia
[28] = test system: NCI-H460 lung
[29] = test system: SK-MEL-2 melanoma
[30] = test system: HL-60(TB) leukemia
[31] = test system: K-562 leukemia
[32] = test system: OVCAR-8 ovarian
[33] = test system: M14 melanoma
[34] = test system: LOX IMVI melanoma
[35] = test system: UACC-257 melanoma
[36] = test system: RXF 393 renal
[37] = test system: SN12C renal
[38] = test system: A549 NSCLC
[39] = test system: SK-OV-3 ovarian
[40] = test system: MCF7 breast
[41] = test system: T-47D breast
[42] = test system: A498 renal
[43] = test system: MDA-MB-435
[44] = test system: NCI-H522 lung
[45] = test system: MALME-3M melanoma
[46] = test system: SR leukemia
[47] = test system: SNB-75 CNS
[48] = test system: MOLT-4 leukemia
[49] = test system: SNB-19 CNS
[50] = test system: UACC-62 melanoma
[51] = test system: RPMI-8226 leukemia
[52] = test system: DU-145 prostate
[53] = test system: OVCAR-3 ovarian
[54] = test system: EKVX NSCLC
[55] = test system: OVCAR-4 ovarian
[56] = test system: MDA-MB-468 breast
[57] = test system: HS 578T breast
[58] = test system: SK-MEL-28 melanoma

Compound: Cc1ccc(C(=O)Nc2cc(-n3ccnc3C)cc(C(F)(F)F)c2)cc1C#Cc1cnc2cccnn12
- GI50 [1]: 2620 nM
- TGI [1]: 23.2 µM
- GI50 [2]: 4.51 µM
- TGI [2]: 15.3 µM
- GI50 [3]: 3.4 µM
- TGI [3]: 8.39 µM
- GI50 [4]: 1880 nM
- TGI [4]: 9.67 µM
- GI50 [5]: 131 nM
- TGI [5]: 24.6 µM
- GI50 [6]: 1760 nM
- TGI [6]: 6.52 µM
- GI50 [7]: 1310 nM
- TGI [7]: 8.25 µM
- GI50 [8]: 4.27 µM
- TGI [8]: 14 µM
- GI50 [9]: 2550 nM
- TGI [9]: 11 µM
- GI50 [10]: 2490 nM
- TGI [10]: 6.69 µM
- GI50 [11]: 1700 nM
- TGI [11]: 15.6 µM
- GI50 [12]: 364 nM
- TGI [12]: 3.2 µM
- GI50 [13]: 4 µM
- TGI [13]: 16.4 µM
- GI50 [14]: 2440 nM
- TGI [14]: > 29.3 µM
- GI50 [15]: 1230 nM
- TGI [15]: 6.47 µM
- GI50 [16]: 3.33 µM
- TGI [16]: 8.81 µM
- GI50 [17]: 848 nM
- TGI [17]: 4.94 µM
- GI50 [18]: 4.02 µM
- TGI [18]: 11.9 µM
- GI50 [19]: 916 nM
- TGI [19]: 4 µM
- GI50 [20]: 1130 nM
- TGI [20]: 6.17 µM
- GI50 [21]: 918 nM
- TGI [21]: 4.61 µM
- GI50 [22]: 4.23 µM
- TGI [22]: 13.4 µM
- GI50 [23]: 1530 nM
- TGI [23]: 12.2 µM
- GI50 [24]: 1270 nM
- TGI [24]: 8.91 µM
- GI50 [25]: 3.13 µM
- TGI [25]: 8.7 µM
- GI50 [26]: 2430 nM
- TGI [26]: > 29.3 µM
- GI50 [27]: 3.45 µM
- TGI [27]: > 29.3 µM
- GI50 [28]: 3.68 µM
- TGI [28]: 10.8 µM
- GI50 [29]: 840 nM
- TGI [29]: 4.62 µM
- GI50 [30]: 257 nM
- TGI [30]: > 29.3 µM
- GI50 [31]: 2.93 nM
- TGI [31]: > 29.3 µM
- GI50 [32]: 3.49 µM
- TGI [32]: 11.1 µM
- GI50 [33]: 924 nM
- TGI [33]: 24.4 µM
- GI50 [34]: 702 nM
- TGI [34]: 4.35 µM
- GI50 [35]: 1780 nM
- TGI [35]: 8.74 µM
- GI50 [36]: 1640 nM
- TGI [36]: 6.11 µM
- GI50 [37]: 948 nM
- TGI [37]: 5.97 µM
- GI50 [38]: 3.01 µM
- TGI [38]: 13.5 µM
- GI50 [39]: 5.64 µM
- TGI [39]: 14.9 µM
- GI50 [40]: 5.06 µM
- TGI [40]: > 29.3 µM
- GI50 [41]: 4.24 µM
- TGI [41]: 12.6 µM
- GI50 [42]: 3.26 µM
- TGI [42]: 9.74 µM
- GI50 [43]: 3.07 µM
- TGI [43]: 14.7 µM
- GI50 [44]: 2740 nM
- TGI [44]: 9.44 µM
- GI50 [45]: 250 nM
- TGI [45]: 1730 nM
- GI50 [46]: 2440 nM
- TGI [46]: > 29.3 µM
- GI50 [47]: 2980 nM
- TGI [47]: 8.74 µM
- GI50 [48]: 2420 nM
- TGI [48]: > 29.3 µM
- GI50 [49]: 6.09 µM
- TGI [49]: 19.1 µM
- GI50 [50]: 756 nM
- TGI [50]: 4.13 µM
- GI50 [51]: 1270 nM
- TGI [51]: 15 µM
- GI50 [52]: 5.23 µM
- TGI [52]: 23.1 µM
- GI50 [53]: 9.25 µM
- TGI [53]: 29.1 µM
- GI50 [54]: 6.85 µM
- TGI [54]: > 29.3 µM
- GI50 [55]: 4.51 µM
- TGI [55]: 16.3 µM
- GI50 [56]: 6.89 µM
- TGI [56]: 19.7 µM
- GI50 [57]: 1120 nM
- TGI [57]: 7.31 µM
- GI50 [58]: 898 nM
- TGI [58]: 4.47 µM
